Data reported in PubChem BioAssay (NCI).
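Compound exposure: 48 hours, 5 concentrations, 96-well plates. At the GI50, growth is halved. TGI denotes the concentration required for complete inhibition of growth.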

Columns and labels:
Experiment in all cases: NCI anticancer screen, dose series, 48 h
HCC-2998 colon = tested on: HCC-2998 colon
SF-539 CNS = tested on: SF-539 CNS
HL-60(TB) leukemia = tested on: HL-60(TB) leukemia
NCI-H226 lung = tested on: NCI-H226 lung
HOP-92 NSCLC = tested on: HOP-92 NSCLC
U251 CNS = tested on: U251 CNS
HCT-15 colon = tested on: HCT-15 colon
OVCAR-3 ovarian = tested on: OVCAR-3 ovarian
A549 NSCLC = tested on: A549 NSCLC
OVCAR-5 ovarian = tested on: OVCAR-5 ovarian
NCI/ADR-RES ovarian = tested on: NCI/ADR-RES ovarian
UACC-257 melanoma = tested on: UACC-257 melanoma
IGROV1 ovarian = tested on: IGROV1 ovarian
DU-145 prostate = tested on: DU-145 prostate
SW-620 colon = tested on: SW-620 colon
UO-31 renal = tested on: UO-31 renal
SK-OV-3 ovarian = tested on: SK-OV-3 ovarian
SK-MEL-2 melanoma = tested on: SK-MEL-2 melanoma
MDA-MB-435 = tested on: MDA-MB-435
OVCAR-8 ovarian = tested on: OVCAR-8 ovarian
SNB-19 CNS = tested on: SNB-19 CNS
NCI-H460 lung = tested on: NCI-H460 lung
PC-3 prostate = tested on: PC-3 prostate
MCF7 breast = tested on: MCF7 breast
SN12C renal = tested on: SN12C renal
MALME-3M melanoma = tested on: MALME-3M melanoma
HS 578T breast = tested on: HS 578T breast
MOLT-4 leukemia = tested on: MOLT-4 leukemia
UACC-62 melanoma = tested on: UACC-62 melanoma
ACHN renal = tested on: ACHN renal
BT-549 breast = tested on: BT-549 breast
NCI-H23 lung = tested on: NCI-H23 lung
HOP-62 NSCLC = tested on: HOP-62 NSCLC
A498 renal = tested on: A498 renal
M14 melanoma = tested on: M14 melanoma
HT29 colon = tested on: HT29 colon
LOX IMVI melanoma = tested on: LOX IMVI melanoma
HCT-116 colon = tested on: HCT-116 colon
SK-MEL-28 melanoma = tested on: SK-MEL-28 melanoma
SF-268 CNS = tested on: SF-268 CNS
KM12 colon = tested on: KM12 colon
MDA-MB-231 breast = tested on: MDA-MB-231 breast
CCRF-CEM leukemia = tested on: CCRF-CEM leukemia
EKVX NSCLC = tested on: EKVX NSCLC
TK-10 renal = tested on: TK-10 renal
786-0 renal = tested on: 786-0 renal
SNB-75 CNS = tested on: SNB-75 CNS
SF-295 CNS = tested on: SF-295 CNS
SK-MEL-5 melanoma = tested on: SK-MEL-5 melanoma
OVCAR-4 ovarian = tested on: OVCAR-4 ovarian
NCI-H522 lung = tested on: NCI-H522 lung

With `CCC1=C[C@H]2CN(CCc3c([nH]c4ccccc34)[C@@](C(=O)OC)(c3cc4c(cc3OC)N(C)[C@H]3[C@@](O)(C(=O)OC)[C@H](OC(C)=O)[C@]5(CC)[C@@H]6C[C@@H]6CN6CC[C@]43[C@@H]65)C2)C1` the GI50 (HCC-2998 colon) was 84 nM, the TGI (HCC-2998 colon) was 3070 nM and the GI50 (SF-539 CNS) was 54 nM. The TGI (SF-539 CNS) was 179 nM, the GI50 (HL-60(TB) leukemia) was 26.5 nM and the TGI (HL-60(TB) leukemia) was 140 nM. It also gave a GI50 (NCI-H226 lung) of 2650 nM, a TGI (NCI-H226 lung) of 10300 nM and a GI50 (HOP-92 NSCLC) of 109 nM. For the same compound, the TGI (HOP-92 NSCLC) was 1760 nM, the GI50 (U251 CNS) was 30.9 nM and the TGI (U251 CNS) was 3220 nM. For the same compound, the GI50 (HCT-15 colon) was 73.8 nM, the TGI (HCT-15 colon) was 3310 nM and the GI50 (OVCAR-3 ovarian) was 10.5 nM. For the same compound, the TGI (OVCAR-3 ovarian) was 2590 nM, the GI50 (A549 NSCLC) was 39.6 nM and the TGI (A549 NSCLC) was 9560 nM. It also gave a GI50 (OVCAR-5 ovarian) of 126 nM, a TGI (OVCAR-5 ovarian) of 13100 nM and a GI50 (NCI/ADR-RES ovarian) of 161 nM. It also gave a TGI (NCI/ADR-RES ovarian) of 1420 nM, a GI50 (UACC-257 melanoma) of 3420 nM and a TGI (UACC-257 melanoma) of 7330 nM. For the same compound, the GI50 (IGROV1 ovarian) was 144 nM, the TGI (IGROV1 ovarian) was 6770 nM and the GI50 (DU-145 prostate) was 23.9 nM. The TGI (DU-145 prostate) was 3150 nM, the GI50 (SW-620 colon) was 42.8 nM and the TGI (SW-620 colon) was 3890 nM. The GI50 (UO-31 renal) was 175 nM, the TGI (UO-31 renal) was 5020 nM and the GI50 (SK-OV-3 ovarian) was 35.8 nM. It also gave a TGI (SK-OV-3 ovarian) of 12200 nM, a GI50 (SK-MEL-2 melanoma) of 75.2 nM and a TGI (SK-MEL-2 melanoma) of 4640 nM. For the same compound, the GI50 (MDA-MB-435) was 6.03 nM, the TGI (MDA-MB-435) was 21.1 nM and the GI50 (OVCAR-8 ovarian) was 127 nM. It also gave a TGI (OVCAR-8 ovarian) of 5800 nM, a GI50 (SNB-19 CNS) of 82.5 nM and a TGI (SNB-19 CNS) of 23400 nM. It also gave a GI50 (NCI-H460 lung) of 38.3 nM, a TGI (NCI-H460 lung) of 2650 nM and a GI50 (PC-3 prostate) of 17.8 nM. It also gave a TGI (PC-3 prostate) of 4240 nM, a GI50 (MCF7 breast) of 13.1 nM and a TGI (MCF7 breast) of 3610 nM. The GI50 (SN12C renal) was 93.2 nM, the TGI (SN12C renal) was 4990 nM and the GI50 (MALME-3M melanoma) was 249 nM. For the same compound, the TGI (MALME-3M melanoma) was 5820 nM, the GI50 (HS 578T breast) was 53 nM and the TGI (HS 578T breast) was 4160 nM. It also gave a GI50 (MOLT-4 leukemia) of 73.7 nM, a TGI (MOLT-4 leukemia) of over 25000 nM and a GI50 (UACC-62 melanoma) of 21.1 nM. For the same compound, the TGI (UACC-62 melanoma) was 5120 nM, the GI50 (ACHN renal) was 144 nM and the TGI (ACHN renal) was 6020 nM. For the same compound, the GI50 (BT-549 breast) was 106 nM, the TGI (BT-549 breast) was 4290 nM and the GI50 (NCI-H23 lung) was 121 nM. For the same compound, the TGI (NCI-H23 lung) was over 25000 nM, the GI50 (HOP-62 NSCLC) was 24.9 nM and the TGI (HOP-62 NSCLC) was 4430 nM. The GI50 (A498 renal) was 35 nM, the TGI (A498 renal) was 183 nM and the GI50 (M14 melanoma) was 26.4 nM. The TGI (M14 melanoma) was 156 nM, the GI50 (HT29 colon) was 11.3 nM and the TGI (HT29 colon) was 2910 nM. For the same compound, the GI50 (LOX IMVI melanoma) was 22.9 nM, the TGI (LOX IMVI melanoma) was 3400 nM and the GI50 (HCT-116 colon) was 18.5 nM. The TGI (HCT-116 colon) was 2610 nM, the GI50 (SK-MEL-28 melanoma) was 2910 nM and the TGI (SK-MEL-28 melanoma) was 6480 nM. It also gave a GI50 (SF-268 CNS) of 124 nM, a TGI (SF-268 CNS) of 4040 nM and a GI50 (KM12 colon) of 31.3 nM. For the same compound, the TGI (KM12 colon) was 3800 nM, the GI50 (MDA-MB-231 breast) was 86.4 nM and the TGI (MDA-MB-231 breast) was 1880 nM. It also gave a GI50 (CCRF-CEM leukemia) of 49.5 nM, a TGI (CCRF-CEM leukemia) of 4480 nM and a GI50 (EKVX NSCLC) of 96.6 nM. The TGI (EKVX NSCLC) was over 25000 nM, the GI50 (TK-10 renal) was 3330 nM and the TGI (TK-10 renal) was 8130 nM. For the same compound, the GI50 (786-0 renal) was 31.5 nM, the TGI (786-0 renal) was 3070 nM and the GI50 (SNB-75 CNS) was 595 nM. The TGI (SNB-75 CNS) was over 25000 nM, the GI50 (SF-295 CNS) was 14.2 nM and the TGI (SF-295 CNS) was 3150 nM. The GI50 (SK-MEL-5 melanoma) was 14.3 nM, the TGI (SK-MEL-5 melanoma) was 586 nM and the GI50 (OVCAR-4 ovarian) was 375 nM. For the same compound, the TGI (OVCAR-4 ovarian) was over 25000 nM, the GI50 (NCI-H522 lung) was 11 nM and the TGI (NCI-H522 lung) was 302 nM.
